Reference: EP4643861A1, “A HALOGENATED-HETEROARYL KINASE INHBITOR FOR TREATING SOFT TISSUE SARCOMA AND VASCULAR TUMORS” (iOmx Therapeutics AG, priority 2024, dated 2025)

What was measured:
[1] = tested on: Human Patient-Derived Xenograft (PDX) Angiosarcoma; experiment: E9 monotherapy efficacy in Human Patient-Derived Xenograft (PDX) Angiosarcoma model; type: in vivo, immuno-deficient NOD scid gamma (NOG) mice; details: BID × 23, termination at day 23
From the text: This Angiosarcoma PDX model was used for preclinical evaluation of E9 in Angiosarcoma due to the retention of tumor heterogeneity and biological characteristics. Additionally, due to the rare indication, no murine syngeneic or human xenograft models are available.
Briefly, immuno-deficient NOD scid gamma (NOG) mice, were housed in a controlled environment conducive to tumor growth. Human PDX tumor samples, obtained from a patient with Angiosarcoma (Epitheloid AS […]), were implanted subcutaneously into the mice. Tumor growth was monitored using non-invasive caliper method and was calculated by the following formula: volume = (width)2 × (length)/2. Animals were randomized into treatment groups at a tumor volume (TV) of ~160mm3 (Table 1). Treatment started after randomization twice daily until termination at day 23 when Vehicle animals reached termination criteria due to TV. Table 1: Example treatment groups.

[2] = tested on: secondary radiation-induced cutaneous angiosarcoma; experiment: Treatment of a secondary angiosarcoma in a patient (dose escalation study); type: in vivo, human
Description: Clinical responder patient suffered from a secondary radiation-induced cutaneous angiosarcoma. The patient, who previously received radiotherapy in context of a treatment of breast cancer, developed secondary angiosarcoma. The angiosarcoma was treated with chemotherapy including paclitaxel, doxorubicin and cyclophosphamide the patient developed treatment resistance to the chemotherapy. In the following the patient received E9 in context of a dose excalation study in which E9 was administered orally every 12h (i.e. twice daily) for 28 days per treatment cycle. E9 daily doses were escalated from 10mg to 30mg and finally 60mg E9 during the then following continuous treatment.

Cc1nc(Nc2ncc(C(=O)Nc3c(CF)csc3Cl)s2)cc(N2CCN(C)CC2)n1 [E9, N-(2-chloro-4-(fluoromethyl)thiophen-3-yl)-2-((2-methyl-6-(4-methylpiperazin-1-yl)pyrimidin-4-yl)amino)thiazole-5-carboxamide]
tumor growth inhibition (TGI) ([1]; 25mg/kg E9, p.o.): 55%
tumor size at termination compared to treatment start ([1]; 50 mg/kg E9, p.o.): tumor regression
duration of maintained near-complete response ([2]; further treatment with 60mg daily E9): over 10 months
tolerability ([2]; orally every 12h, 28 days per cycle, daily doses escalated from 10mg to 30mg and finally 60mg): well tolerated
clinical response (reduction of cutaneous lesions) ([2]; patient resistant to paclitaxel, doxorubicin and cyclophosphamide, E9 orally twice daily): near-complete response
